From US20050107353A1, “Methods of treating lower urinary tract disorders using losigamone” (Dynogen Pharmaceuticals, Inc., priority 2003, published 2005)
“Also recorded” adds a separate entry of the source.

Assays:
[1] = tested on: activity dependent sodium currents in bladder DRG neurons; assay: Use-dependent effect on sodium currents in bladder DRG neurons, slow versus fast stimulation; format: cell-based, rat; settings: 100 μM, steps from −50 to 0 mV, three neurons
Protocol: Labeling of bladder afferent neurons: Adult female Sprague-Dawley rats (150-300 g) were deeply anesthetized with pentobarbital anesthesia and placed on isoflurane maintenance anesthesia. A ventral midline incision was made through the abdominal skin and musculature, exposing the urinary bladder. Five injections of the fluorescent dye Di-I (5 μl each of 25 mg/ml Di-I in DMSO) or Fast Blue (4% w/v) were made into the bladder smooth muscle wall to label primary afferent fibers innervating the bladder. The area was rinsed with sterile saline to eliminate nonspecific spread of dye, and the incision was closed. Rats recovered for 5-12 days to allow for transport of fluorescent dye from distal terminals to the cell somata of dorsal root ganglion (DRG) neurons. Labeled neurons were identified in vitro using fluorescence optics. […]
Sodium currents were recorded from DRG neurons using standard electrophysiologic protocols. […] Currents were recorded using a patch-clamp amplifier and digitized at 3-10 kHz for acquisition. Neuronal input resistance and membrane capacitance were determined from the amplitude and kinetics of the current response to a voltage pulse from a holding potential of −50 mV. […] For all cell types, baseline responses were recorded for a minimum of 10 min to ensure that the kinetics of the response was stable. […]

[2] = target: T1, TTX-R sodium currents in bladder afferent neurons (Rattus norvegicus, UniProt Q62968); assay: Bladder sensory neuron sodium channel current model: whole cell patch-clamp of TTX-R sodium currents; format: cell-based; settings: 30 μM bath application, 7 minute, holding potential −70 mV, pulse to +10 mV
T1 construct: Whole cell patch-clamp recordings were obtained from dye-labeled DRG neurons; endogenous in cells; host or cells: primary dissociated L6/S1 dorsal root ganglion neurons of Sprague-Dawley rats, dye-labelled bladder afferents
T1 sequence (Q62968 whole entry): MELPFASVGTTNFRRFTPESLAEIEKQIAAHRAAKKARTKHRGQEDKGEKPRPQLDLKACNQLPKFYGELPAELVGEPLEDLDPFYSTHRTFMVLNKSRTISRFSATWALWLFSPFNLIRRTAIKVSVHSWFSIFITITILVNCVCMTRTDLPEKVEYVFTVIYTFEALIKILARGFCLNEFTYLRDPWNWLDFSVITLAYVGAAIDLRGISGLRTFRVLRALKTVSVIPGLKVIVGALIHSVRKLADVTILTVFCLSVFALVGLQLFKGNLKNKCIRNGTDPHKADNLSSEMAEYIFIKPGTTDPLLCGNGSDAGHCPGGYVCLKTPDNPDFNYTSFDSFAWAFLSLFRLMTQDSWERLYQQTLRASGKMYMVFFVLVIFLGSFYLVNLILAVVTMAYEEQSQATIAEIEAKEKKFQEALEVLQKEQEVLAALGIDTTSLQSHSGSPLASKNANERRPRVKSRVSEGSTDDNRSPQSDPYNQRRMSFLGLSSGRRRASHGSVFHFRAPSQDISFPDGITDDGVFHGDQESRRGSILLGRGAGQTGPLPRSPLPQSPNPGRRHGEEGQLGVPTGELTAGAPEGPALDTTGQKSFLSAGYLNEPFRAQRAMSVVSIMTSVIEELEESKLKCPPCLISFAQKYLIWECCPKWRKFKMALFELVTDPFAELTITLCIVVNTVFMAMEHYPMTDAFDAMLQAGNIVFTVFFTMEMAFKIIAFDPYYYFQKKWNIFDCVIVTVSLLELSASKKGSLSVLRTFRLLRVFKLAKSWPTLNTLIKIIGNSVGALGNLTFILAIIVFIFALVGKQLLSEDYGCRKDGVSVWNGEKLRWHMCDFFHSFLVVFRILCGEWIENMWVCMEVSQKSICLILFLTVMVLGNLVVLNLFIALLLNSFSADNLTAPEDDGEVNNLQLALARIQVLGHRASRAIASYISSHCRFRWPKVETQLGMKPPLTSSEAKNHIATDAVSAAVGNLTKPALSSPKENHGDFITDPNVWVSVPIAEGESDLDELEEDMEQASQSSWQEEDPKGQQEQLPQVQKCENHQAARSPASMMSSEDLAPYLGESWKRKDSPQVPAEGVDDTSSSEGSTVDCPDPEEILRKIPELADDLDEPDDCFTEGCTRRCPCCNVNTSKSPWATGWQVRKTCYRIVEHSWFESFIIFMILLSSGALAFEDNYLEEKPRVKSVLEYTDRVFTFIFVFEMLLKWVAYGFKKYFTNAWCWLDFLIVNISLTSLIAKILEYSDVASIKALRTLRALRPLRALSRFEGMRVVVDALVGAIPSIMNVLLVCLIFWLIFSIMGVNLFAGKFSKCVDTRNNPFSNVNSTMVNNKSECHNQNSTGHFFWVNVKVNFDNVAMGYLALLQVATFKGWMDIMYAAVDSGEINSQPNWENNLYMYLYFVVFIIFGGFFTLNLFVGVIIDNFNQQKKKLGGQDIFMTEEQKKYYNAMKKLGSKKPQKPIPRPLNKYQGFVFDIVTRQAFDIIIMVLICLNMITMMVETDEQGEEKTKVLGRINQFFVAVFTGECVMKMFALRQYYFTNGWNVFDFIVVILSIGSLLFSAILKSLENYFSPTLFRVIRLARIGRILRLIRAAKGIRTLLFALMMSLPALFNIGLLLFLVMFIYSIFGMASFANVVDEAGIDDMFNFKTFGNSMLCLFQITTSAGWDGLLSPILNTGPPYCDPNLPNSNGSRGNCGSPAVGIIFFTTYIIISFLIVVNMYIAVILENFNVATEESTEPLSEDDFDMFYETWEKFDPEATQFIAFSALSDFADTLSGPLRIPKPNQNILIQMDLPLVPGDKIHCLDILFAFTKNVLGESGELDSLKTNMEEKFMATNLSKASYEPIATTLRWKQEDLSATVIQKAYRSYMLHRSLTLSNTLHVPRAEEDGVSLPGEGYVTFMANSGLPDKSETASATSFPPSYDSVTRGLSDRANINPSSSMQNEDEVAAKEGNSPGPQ
Protocol: Labeling of bladder afferent neurons: Adult female Sprague-Dawley rats (150-300 g) were deeply anesthetized with pentobarbital anesthesia and placed on isoflurane maintenance anesthesia. A ventral midline incision was made through the abdominal skin and musculature, exposing the urinary bladder. Five injections of the fluorescent dye Di-I (5 μl each of 25 mg/ml Di-I in DMSO) or Fast Blue (4% w/v) were made into the bladder smooth muscle wall to label primary afferent fibers innervating the bladder. The area was rinsed with sterile saline to eliminate nonspecific spread of dye, and the incision was closed. Rats recovered for 5-12 days to allow for transport of fluorescent dye from distal terminals to the cell somata of dorsal root ganglion (DRG) neurons. Labeled neurons were identified in vitro using fluorescence optics.
Neuronal cultures: Di-I injected rats were euthanized with pentobarbital anesthesia. Lumbar (L6) and sacral (S1) DRG were dissected from the vertebral column and placed in Dulbecco's modified Eagles medium (DMEM) containing 0.3% collagenase B for 60 min at 37° C. The cell solution was exchanged for a 0.25% trypsin in calcium/magnesium-free Dulbecco's phosphate-buffered saline solution, and further digested for 30 min at 37° C. Following a wash in fresh DMEM, ganglia were dissociated by a series of triturations using fire-polished Pasteur pipettes. DRG cells were plated on polylysine-treated glass coverslips. Cells were plated at a density of 0.5 DRG per coverslip in 1 ml DMEM supplemented with 10% FBS, NGF, and 100 U/ml penicillin/streptomycin. All experimental procedures involving rats were conducted under a protocol approved by an Institutional Animal Care and Use Committee. Small variations in the concentrations of reagents, incubation times, etc. may occur and are expected to give similar results.
In most experiments, neurons were incubated in culture medium containing the FITC-labeled lectin BSI-B4 (IB4, […]) at 37° C. for 5 min before recording. The coverslip was washed with extracellular recording solution for 1 min before being placed in a recording chamber mounted on the stage of an inverted microscope equipped with fluorescence optics.
Electrophysiology: Electrophysiologic evaluation of neurons occurred within 4-48 h of plating. Whole cell patch-clamp recordings were obtained from dye-labeled DRG neurons. Recordings were obtained in an extracellular recording solution (pH 7.4, 295-320 mosM) consisting of (in mM) 140 NaCl, 3 KCl, 1 CaCl2, 1 MgCl2, 0.1 CdCl2, 10 HEPES, and 10 glucose. Patch-clamp electrodes were pulled from borosilicate glass and fire polished to 2-6 MOhm tip resistance. The internal pipette recording solution (pH 7.3, 290-300 mosM) consisted of (in mM) 140 CsCl, 10 NaCl, 1 EGTA, and 10 HEPES. Tetrodotoxin (TTX, 0.3 uM) was included in the extracellular solution to block TTX-sensitive sodium currents. Variations in the concentrations and types of reagents used for solutions may occur and are expected to give similar results.
Sodium currents were recorded from DRG neurons using standard electrophysiologic protocols. Neurons were typically voltage-clamped at −50 mV. Currents were recorded using a patch-clamp amplifier and digitized at 3-10 kHz for acquisition. Neuronal input resistance and membrane capacitance were determined from the amplitude and kinetics of the current response to a voltage pulse from a holding potential of −50 mV. Series resistance was compensated 75-95% for all recordings. Leak currents were cancelled online using a standard P/4 protocol. Depolarizing steps from −90, −70, or −50 mV to 0 mV were delivered every 5 or 30 sec during drug application to determine the effects of drugs on sodium currents. For all cell types, baseline responses were recorded for a minimum of 10 min to ensure that the kinetics of the response was stable. A wash out or recovery period usually followed the drug application period. […]

[3] = tested on: acetic acid-induced reduction of bladder capacity; assay: Dilute acetic acid model: bladder capacity by filling cystometry during continuous intravesical acetic acid irritation; format: in vivo, rat; settings: intraduodenal; for effect on bladder capacity (reversal of acetic acid-induced reduction): increasing doses, rats during continuous irritation
Description: The objective of the current study was to determine the effect of TTX-R sodium channel modulators or use dependent sodium channel modulators on the ability to reverse the reduction in bladder capacity seen following continuous infusion of dilute acetic acid, a commonly used model of lower urinary tract disorders including overactive bladder.
Animal Preparation: Female rats (250-275 g BW) were anesthetized with urethane (1.2 g/kg) and a saline-filled catheter (PE-50) was inserted into either the jugular vein for intravenous (i.v.; saline vehicle) or the proximal duodenum for intraduodenal (i.d.; distilled water or 10% Tween 80 in saline as vehicle) drug administration. Via a midline lower abdominal incision, a flared-tipped PE 50 catheter was inserted into the bladder dome for bladder filling and pressure recording and secured by ligation. The abdominal cavity was moistened with saline and closed by covering with a thin plastic sheet in order to maintain access to the bladder for emptying purposes. Fine silver or stainless steel wire electrodes were inserted into the external urethral sphincter (EUS) percutaneously for electromyography (EMG).
Experimental Design: Saline was continuously infused at a rate of 0.055 ml/min via the bladder filling catheter for ≧60 minutes to obtain a baseline of lower urinary tract activity (continuous cystometry; CMG). Following the control period, a 0.25% acetic acid solution in saline was infused into the bladder at the same flow rate to induce bladder irritation. Following 30 minutes of AA infusion, 3 vehicle injections were made at 20 minute intervals to determine vehicle effects, if any. Subsequently, increasing doses (2-5) of Na^+ channel blocking compound were administered intravenously or intraduodenaly at half-log order increments at 30 or 60 minute intervals in order to construct a cumulative dose-response relationship. At the end of the control saline cystometry period, the third vehicle, and 20-50 minutes following each subsequent treatment, the infusion pump was stopped, the bladder was emptied by fluid withdrawal via the infusion catheter and a single filling cystometrogram was performed at the same flow rate in order to determine changes in bladder capacity caused by the irritation protocol and subsequent intravenous or intraduodenal drug administration.
Data were analyzed by non-parametric ANOVA for repeated measures (Friedman Test) with Dunn's Multiple Comparison test. All comparisons were made from the last vehicle measurement (AA/Veh 3) or the lowest dose of drug. P<0.050 was considered significant.

Nc1nnc(-c2cccc(Cl)c2Cl)c(N)n1 [Lamotrigine, 6-(2,3-Dichlorophenyl)-1,2,4-triazine-3,5-diamine]
peak sodium current amplitude, fast (17 Hz) versus slow (0.2 Hz) stimulation [1]: decreased to a greater extent under fast stimulation conditions

CC1(C)O[C@@H]2[C@@H](CO[C@@]3(COS(N)(=O)=O)OC(C)(C)O[C@@H]23)O1 [Topiramate, 2,3:4,5-Bis-O-(1-methylethylidene)-1-O-sulfamoyl-beta-D-fructopyranose]
effect on inward TTX-R sodium current [2]: blocked the current | post-test: reversal of bladder capacity reduction ([3]; 100 mg/kg dose, rats): statistically significant reversal of bladder capacity reduction | effect on bladder capacity (reversal of acetic acid-induced reduction) [3]: capable of partially reversing the reduction in bladder capacity caused by acetic acid in a dose-dependent fashion; also recorded: dose-dependent and statistically significant reversal | effect on bladder capacity (reversal of acetic acid-induced reduction) ([3]; listed as topiramate): dose-dependent, statistically significant increases in bladder capacity
